Test results published in ChEMBL document CHEMBL5726107, “Histone demethylase inhibitors” (2017).

Columns and labels:
[1] = molecular target: Lysine-specific demethylase 5B (Homo sapiens, UniProt Q9UGL1); test: (§1) The reaction mixture was incubated at room temperature for 30 minutes, and terminated by the addition of 6 μl of 5 mM EDTA in LANCE detection buffer containing 50 nM Phycolink Streptavidin-allophycocyanin and 2 nM Europium-anti-H3K4me1-2 antibody.
[2] = molecular target: Lysine-specific demethylase 5A (Homo sapiens, UniProt P29375); test: as §1, with “Enzymatic Assay: The enzymatic assay of Jarid1A activity is based upon Time Resolved-Fluorescence Resonance Energy Transfer (TR-FRET) detection. […] The” for “The”
Sequence of Lysine-specific demethylase 5A (P29375 whole entry): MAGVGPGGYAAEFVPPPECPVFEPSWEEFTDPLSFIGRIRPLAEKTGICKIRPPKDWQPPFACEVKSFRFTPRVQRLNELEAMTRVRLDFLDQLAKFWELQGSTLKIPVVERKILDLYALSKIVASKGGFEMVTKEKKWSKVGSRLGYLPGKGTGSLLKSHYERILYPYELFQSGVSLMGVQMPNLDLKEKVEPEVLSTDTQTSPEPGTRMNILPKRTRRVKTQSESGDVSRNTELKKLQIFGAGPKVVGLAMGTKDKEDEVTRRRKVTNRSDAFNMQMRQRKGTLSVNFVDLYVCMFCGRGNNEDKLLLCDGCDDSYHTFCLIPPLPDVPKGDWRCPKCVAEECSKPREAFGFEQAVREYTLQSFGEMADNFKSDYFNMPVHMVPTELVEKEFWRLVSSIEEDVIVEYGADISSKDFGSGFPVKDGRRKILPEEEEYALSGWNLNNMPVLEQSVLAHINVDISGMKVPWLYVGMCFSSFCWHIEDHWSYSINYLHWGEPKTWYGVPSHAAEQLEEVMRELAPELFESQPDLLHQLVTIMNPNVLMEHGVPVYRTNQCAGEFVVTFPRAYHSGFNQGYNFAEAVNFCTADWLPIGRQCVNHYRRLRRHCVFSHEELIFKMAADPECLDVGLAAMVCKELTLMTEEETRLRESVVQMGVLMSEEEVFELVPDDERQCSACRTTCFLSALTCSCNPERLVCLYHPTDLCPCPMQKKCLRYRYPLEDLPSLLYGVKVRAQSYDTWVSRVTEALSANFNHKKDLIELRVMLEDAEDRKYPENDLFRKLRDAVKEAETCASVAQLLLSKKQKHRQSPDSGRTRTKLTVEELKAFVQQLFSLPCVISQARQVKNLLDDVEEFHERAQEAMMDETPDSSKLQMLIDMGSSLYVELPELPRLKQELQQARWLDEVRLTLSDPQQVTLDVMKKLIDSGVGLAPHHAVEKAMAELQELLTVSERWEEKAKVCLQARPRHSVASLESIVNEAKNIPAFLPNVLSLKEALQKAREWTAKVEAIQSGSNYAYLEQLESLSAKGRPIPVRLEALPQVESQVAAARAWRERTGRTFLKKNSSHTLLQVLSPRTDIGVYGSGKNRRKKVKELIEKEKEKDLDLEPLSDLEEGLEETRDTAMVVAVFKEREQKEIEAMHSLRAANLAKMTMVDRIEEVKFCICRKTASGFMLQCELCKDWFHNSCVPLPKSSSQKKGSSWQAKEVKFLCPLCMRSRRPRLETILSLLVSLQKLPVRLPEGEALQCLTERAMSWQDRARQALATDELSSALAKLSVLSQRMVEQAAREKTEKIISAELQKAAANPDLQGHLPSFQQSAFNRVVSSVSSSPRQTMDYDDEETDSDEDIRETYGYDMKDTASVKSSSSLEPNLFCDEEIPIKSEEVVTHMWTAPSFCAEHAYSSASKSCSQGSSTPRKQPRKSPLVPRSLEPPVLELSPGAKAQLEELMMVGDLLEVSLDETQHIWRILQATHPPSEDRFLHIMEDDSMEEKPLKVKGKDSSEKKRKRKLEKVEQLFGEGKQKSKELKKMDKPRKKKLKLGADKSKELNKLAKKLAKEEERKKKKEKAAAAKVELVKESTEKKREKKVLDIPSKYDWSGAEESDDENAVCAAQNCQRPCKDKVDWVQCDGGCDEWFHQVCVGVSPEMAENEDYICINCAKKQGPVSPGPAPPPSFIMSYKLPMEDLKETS

Sequence of Lysine-specific demethylase 5B (Q9UGL1 whole entry): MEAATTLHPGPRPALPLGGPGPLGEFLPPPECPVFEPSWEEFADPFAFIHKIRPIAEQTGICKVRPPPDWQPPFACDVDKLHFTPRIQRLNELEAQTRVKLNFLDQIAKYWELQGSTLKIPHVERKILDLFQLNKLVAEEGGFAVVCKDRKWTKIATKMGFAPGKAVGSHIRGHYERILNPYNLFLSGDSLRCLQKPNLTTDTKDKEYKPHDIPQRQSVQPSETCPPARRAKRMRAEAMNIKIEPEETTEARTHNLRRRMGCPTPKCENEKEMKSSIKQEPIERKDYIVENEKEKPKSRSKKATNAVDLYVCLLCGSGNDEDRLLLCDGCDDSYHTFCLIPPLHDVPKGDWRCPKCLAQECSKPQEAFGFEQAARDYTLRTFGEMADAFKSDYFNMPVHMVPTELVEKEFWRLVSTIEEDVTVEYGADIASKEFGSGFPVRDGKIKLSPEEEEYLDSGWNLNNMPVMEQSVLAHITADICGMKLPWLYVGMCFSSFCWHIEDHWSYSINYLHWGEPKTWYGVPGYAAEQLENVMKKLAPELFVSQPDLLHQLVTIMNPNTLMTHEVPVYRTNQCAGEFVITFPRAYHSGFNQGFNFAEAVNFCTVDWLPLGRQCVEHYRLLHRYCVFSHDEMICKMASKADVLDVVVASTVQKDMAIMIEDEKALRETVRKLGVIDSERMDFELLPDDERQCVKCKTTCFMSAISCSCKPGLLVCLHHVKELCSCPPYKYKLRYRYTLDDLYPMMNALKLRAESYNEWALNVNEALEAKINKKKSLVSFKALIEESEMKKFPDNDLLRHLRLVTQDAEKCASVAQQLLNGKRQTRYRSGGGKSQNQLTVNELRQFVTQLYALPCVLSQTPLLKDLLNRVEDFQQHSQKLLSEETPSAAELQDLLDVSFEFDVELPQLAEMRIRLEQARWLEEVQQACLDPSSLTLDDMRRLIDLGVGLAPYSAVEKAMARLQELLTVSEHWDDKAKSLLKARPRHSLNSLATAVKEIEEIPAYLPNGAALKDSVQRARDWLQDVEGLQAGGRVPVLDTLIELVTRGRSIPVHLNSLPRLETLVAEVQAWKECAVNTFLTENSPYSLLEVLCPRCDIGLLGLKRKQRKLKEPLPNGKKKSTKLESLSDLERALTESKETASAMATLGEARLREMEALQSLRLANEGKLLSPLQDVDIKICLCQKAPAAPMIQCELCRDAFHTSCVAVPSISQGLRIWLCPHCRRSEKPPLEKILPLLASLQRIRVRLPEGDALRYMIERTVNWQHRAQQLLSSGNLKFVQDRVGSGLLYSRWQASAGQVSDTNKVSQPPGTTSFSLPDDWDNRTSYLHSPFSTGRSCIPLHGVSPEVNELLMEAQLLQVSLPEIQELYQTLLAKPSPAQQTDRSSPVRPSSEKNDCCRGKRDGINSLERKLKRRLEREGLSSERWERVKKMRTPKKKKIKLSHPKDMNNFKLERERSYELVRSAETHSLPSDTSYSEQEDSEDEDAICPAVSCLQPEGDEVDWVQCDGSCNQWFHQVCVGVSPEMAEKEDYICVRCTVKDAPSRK

Question: For `CCCn1nc(Nc2cnccc2C(=O)O)c2cccc(C)c21`, which IC50 [1] is on record?
Answer: < 0.1 µM

Question: And the IC50 [2]?
Answer: < 0.1 µM
